The structures appear in SMILES notation.

This note sets out measurements from patent publication US7956219B2, “Amino acid analogues” (Baker IDI Heart and Diabetes, priority 2002, dated 2011).

For one test, the system named is rat aorta. In words: Isolated aortic ring assay: acetyl choline-induced vascular relaxation. The note with it: rat aorta sections; compound at 10^−8M. As for the experimental part:
FIG. 3 illustrates the augmentation of vascular relaxation produced by increasing concentrations of acetyl choline in the absence of and presence of test compounds. C indicates control.
Initially four compounds were tested for their effect on vascular tone, using an isolated aortic ring assay. In this assay, sections of rat aorta are mounted in an organ bath, and tension is determined continuously using a strain gauge, as described by Furchgott & Zawadski (1980). The effect of test compounds on the vasorelaxant effect of the endothelial-dependent vasodilator acetyl choline (ACh) was examined. […] It will be appreciated that similar experiments may be performed using sections of human aorta, coronary artery or peripheral artery obtained at surgery.

A further test has as its system HeLa cells. In words: Radiolabelled L-arginine uptake into HeLa cells. The test is classed as cell-based. As for the experimental part: C: Control performed in the absence of test compound. […] Panel A: Compound A4; Panel B: Compound A7; Panel C: G10; Panel D: Compound H4.
In parallel with this assay, the capacity for these compounds to alter arginine entry into cells was assessed. Initial studies were conducted in HeLa cells. Arginine entry was determined by the rate of entry of radiolabelled L-arginine into the cells, using the method of Kaye et al., (2000). Of the total library, four compounds were identified which had inhibitory activity at a Ki of 100 μM. These compounds were as follows:
In the light of the foregoing discussion, we propose that this effect may be associated with therapeutic benefit.

Another test has as its system EA.hy.926. The test is described as follows: Arginine uptake by endothelial cell line EA.hy.926. The class given is cell-based. The note with it: Homo sapiens, read-out: Arg uptake (% control) from FIG. 4; for activity at 0.1 µM: compound at 10^-7 M (bottom value); for activity at 0.01 µM: compound at 10^-8 M (top value). The text has this:
Further studies have been performed to characterize the effects of compounds from library M0006 on arginine transport in endothelial cells. Studies performed in the endothelial cell line EA.hy.926 (Harrison-Shostak et al, 1997) have identified a number of compounds which exert a stimulatory effect on L-arginine transport. This cell line is considered to be more physiologically relevant than HeLa cells to the target conditions, and in fact was more sensitive. Table 16 summarises results for the compounds so far identified which have the highest activity in the arginine transport assay.

In the case of `N=C(NCc1cc(C(F)(F)F)cc(C(F)(F)F)c1)Nc1ccc(C(N)=O)cc1OCC1CCC1` [Compound A4], the “augmentation of acetyl choline-induced vascular relaxation” value in the test with rat aorta was “significant augmentation”.

For `N=C(NCc1cc(C(F)(F)F)cc(C(F)(F)F)c1)Nc1ccc(C(N)=O)cc1OCC1CCCCC1` [Compound G10, 3-Cyclohexylmelhoxy-4-[N′-(3,5-trifluoromethyl-benzyl)-guanidino]-benzamide], the “effect on L-arginine transport at low concentration” value in the test on HeLa cells (HeLa cells, low concentration (10^−7 and 10^−8 M)) is given as “enhance L-arginine transport at low concentration”. The “effect on L-arginine transport at high concentration” value in the test with HeLa cells (high concentration) is reported as “inhibit such transport at high concentration”.

On to `N=C(NCc1ccc(Cl)c(Cl)c1)Nc1ccc(C(N)=O)cc1OCC1CCCCC1` [Compound H4, 3-Cyclohexylmethoxy-4-[N′-(3,4-dichloro-benzyl)-guanidino]-benzamide], for which, in the test with rat aorta, the “augmentation of acetyl choline-induced vascular relaxation” value is listed as “significant augmentation”.

`N=C(NCc1cc(C(F)(F)F)cc(C(F)(F)F)c1)Nc1ccc(C(N)=O)cc1OCC1CCC1` [M0006 01 A04]: in the test with EA.hy.926, the activity at 0.1 µM is 108% and the activity at 0.01 µM is 103%.

For the compound `N=C(NCc1ccc(Cl)c(Cl)c1)Nc1ccc(C(N)=O)cc1OCC1CCC1` [M0006 01 A07, 3-Cyclobutylmethoxy-4-[N′-(3,4-dichloro-benzyl)-guanidino]-benzamide], in the test on EA.hy.926, the activity at 0.1 µM was 66% and the activity at 0.01 µM came to 87%.

As for `N=C(NCc1ccccc1F)Nc1ccc(C(N)=O)cc1OCC1CCC1` [M0006 01 A11, 3-Cyclobutylmethoxy-4-[N′-(2-fluoro-benzyl)-guanidino]-benzamide], in the test on EA.hy.926, the activity at 0.1 µM was found to be 128% and the activity at 0.01 µM was found to be 159%.

As for `Cc1ccc(CNC(=N)Nc2ccc(C(N)=O)cc2OCC2CCC2)cc1` [M0006 01 A12, 3-Cyclobutylmethoxy-4-[N′-(4-methyl-benzyl)-guanidino]-benzamide], in the test with EA.hy.926, the activity at 0.1 µM is 160% and the activity at 0.01 µM was 179%.

Turning to `COc1ccccc1CNC(=N)Nc1ccc(C(N)=O)cc1OCC1CCC1` [M0006 01 B04, 3-Cyclobutylmethoxy-4-[N′-(2-methoxy-benzyl)-guanidino]-benzamide], in the test on EA.hy.926, the activity at 0.1 µM amounted to 122% and the activity at 0.01 µM came out at 130%.

In the case of `N=C(Nc1ccc(C(N)=O)cc1OCC1CCC1)NC1CCCCC1` [M0006 01 B12, 3-Cyclobutylmethoxy-4-(N′-cyclohexyl-guanidino)-benzamide], in the test on EA.hy.926, the activity at 0.1 µM was determined as 134% and the activity at 0.01 µM was 161%.

Turning to `CC(CNC(=N)Nc1ccc(C(N)=O)cc1OCC1CC1)c1ccccc1` (centres unmarked) [M0006 01 C12, 3-Cyclopropylmethoxy-4-[N′-(2-phenyl-propyl)-guanidino]-benzamide], in the test on EA.hy.926, the activity at 0.1 µM amounted to 133% and the activity at 0.01 µM worked out at 116%.

As to `CC(CNC(=N)Nc1ccc(C(N)=O)cc1OCC1CCCCO1)c1ccccc1` (centres unmarked) [M0006 01 F05, 4-[N′-(2-Phenyl-propyl)-guanidino)-3-(tetrahydro-pyran-2-ylmethoxy)-benzamide], in the test on EA.hy.926, the activity at 0.1 µM stood at 130% and the activity at 0.01 µM turned out to be 135%.

With `N=C(NCc1ccccc1)Nc1ccc(C(N)=O)cc1OCC1CCCCO1` (centres unmarked) [M0006 01 F09, 4-(N′-Benzyl-guanidino)-3-(tetrahydro-pyran-2-ylmethoxy)-benzamide], in the test with EA.hy.926, the activity at 0.1 µM was 110% and the activity at 0.01 µM was 140%.

As for `N=C(NCc1ccc2c(c1)OCO2)Nc1ccc(C(N)=O)cc1OCC1CCCCO1` (centres unmarked) [M0006 01 F10, 4-(N′-Benzo[1,3]dioxol-5-ylmethyl-guanidino)-3-(tetrahydro-pyran-2-ylmethoxy)-benzamide], in the test with EA.hy.926, the activity at 0.1 µM turned out to be 131% and the activity at 0.01 µM came out at 119%.

In the case of `CC(C)CNC(=N)Nc1ccc(C(N)=O)cc1OCC1CCCCO1` (centres unmarked) [M0006 01 F12, 4-(N′-Isobutyl-guanidino)-3-(tetrahydro-pyran-2-ylmethoxy)-benzamide], in the test with EA.hy.926, the activity at 0.1 µM came to 146% and the activity at 0.01 µM is 103%.

Turning to `N=C(NCc1cc(C(F)(F)F)cc(C(F)(F)F)c1)Nc1ccc(C(N)=O)cc1OCC1CCCCC1` [M0006 01 G10], in the test with EA.hy.926, the activity at 0.1 µM is 188% and the activity at 0.01 µM was found to be 125%.

With `N=C(NCc1ccc(Cl)c(Cl)c1)Nc1ccc(C(N)=O)cc1OCC1CCCCC1` [M0006 01 H04, 3-Cyclohexylmethoxy-4-[N′-(3,4-dichloro-benzyl)-guanidino]-benzamide], in the test on EA.hy.926, the activity at 0.1 µM is 92% and the activity at 0.01 µM turned out to be 99%.

Regarding `COc1ccccc1CNC(=N)Nc1ccc(C(N)=O)cc1OCC1CCCCC1` [M0006 01 H10, 3-Cyclohexylmethoxy-4-[N′-(2-methoxy-benzyl)-guanidino]-benzamide], in the test with EA.hy.926, the activity at 0.1 µM amounted to 146% and the activity at 0.01 µM worked out at 153%.

Take `N=C(NCc1ccccc1)Nc1ccc(C(N)=O)cc1OCC1CCCCC1` [M0006 01 H11, 4-(N′-Benzyl-guanidino)-3-cyclohexylmethoxy-benzamide]: in the test with EA.hy.926, the activity at 0.1 µM came out at 190% and the activity at 0.01 µM was 131%.

Regarding `N=C(NCC1CCCCC1)Nc1ccc(C(N)=O)cc1OCC1CCCCC1` [M0006 02 A10, 3-Cyclohexylmethoxy-4-(N′-cyclohexylmethyl-guanidino)-benzamide], in the test with EA.hy.926, the activity at 0.1 µM came out at 127% and the activity at 0.01 µM is 123%.

Consider `N=C(NCNc1ccc([N+](=O)[O-])cn1)Nc1ccc(C(N)=O)cc1OCc1ccccc1` [M0006 02 D06, 3-Benzyloxy-4-{N′-[(5-nitro-pyridin-2-ylamino)-methyl]-guanidino}-benzamide], for which, in the test on EA.hy.926, the activity at 0.1 µM was found to be 138% and the activity at 0.01 µM came to 176%.

As for `N=C(NCc1ccccc1)Nc1ccc(C(N)=O)cc1OCc1ccccc1` [M0006 02 E06, 4-(N′-Benzyl-guanidino)-3-benzyloxy-benzamide], in the test on EA.hy.926, the activity at 0.1 µM is 160% and the activity at 0.01 µM amounted to 167%.

With `N=C(NCc1ccco1)Nc1ccc(C(N)=O)cc1OCc1ccccc1` [M0006 02 F06, 3-Benzyloxy-4-(N′-furan-2-ylmethyl-guanidino)-benzamide], in the test on EA.hy.926, the activity at 0.1 µM amounted to 126% and the activity at 0.01 µM is 158%.

With `Cc1cccc(COc2cc(C(N)=O)ccc2NC(=N)NCc2ccco2)c1` [M0006 02 H08, 4-(N′-Furan-2-ylmethyl-guanidino)-3-(3-methyl-benzyloxy)-benzamide], in the test with EA.hy.926, the activity at 0.1 µM came out at 182% and the activity at 0.01 µM is 108%.
